According to patent EP4692088A1, “COMPOUND ACTING AS WRN HELICASE INHIBITOR” (SHANGHAI JEYOU PHARMACEUTICAL CO., LTD., priority 2023, dated 2024):

Columns and labels:
[1] = test system: SW620 cells; experiment: Cell proliferation assay (CellTiter-Glo), SW620; type: cell-based; conditions: Homo sapiens, 120 h, SW-620 (MSS), 5 days incubation
Protocol: (§1) SW48 cells were plated at a density of 1,500 cells/well, and LoVo, HCT116, and SW620 cells were plated at a density of 800 cells/well in a 96-well cell culture plate, and cultured in a 37°C incubator overnight. The test compounds, which were gradient-diluted with DMSO, were added, and after incubation for 5 days, cell viability was detected using a CellTiter-Glo kit. The CellTiter-Glo reagent was equilibrated to room temperature, and an appropriate amount was added to the cell plate, followed by shaking at room temperature for 12 min. The luminescence signal was detected using a microplate reader.
(§2) The luminescence signal values of the DMSO-treated wells and cell-free wells were used as negative and positive controls, respectively, to calculate the inhibition rate of compound on cell proliferation. The concentration-inhibition curve was fitted using the "log(inhibitor) vs. normalized response -- Variable slope" equation in GraphPad Prism 8 software to obtain the IC50. [formula]

[2] = test system: HCT116; experiment: γH2AX induction assay (HTRF Phospho-H2AX), HCT116; type: cell-based; conditions: Homo sapiens, HCT-116, incubated for 2-3 days, read-out: γ-H2AX induction HCT-116 (EC50 nM)
Protocol: (§3) SW48, HCT116, and SW620 cells were plated into 96-well cell culture plates at a density of 15,000-25,000 cells/well and cultured overnight in a 37°C incubator. The test compounds, which were gradient-diluted with DMSO, were added and incubated for 2-3 days. The γ-H2AX level was detected using HTRF Phospho-H2AX (SER139) Detection Kits. The 4× Lysis buffer and Detection buffer were equilibrated to room temperature for later use. The 4× Lysis buffer was diluted to 1× Lysis buffer using ddH2O. After the medium was aspirated, 50 µL of 1× Lysis buffer was added to each well and shaken at room temperature for 30 minutes for lysis. 16 µL of lysate was transferred to a 384-well plate, followed by the addition of 4 µL of diluted antibody mixture (Phospho-H2AX d2 antibody and Phospho-H2AX Eu Cryptate antibody were each diluted 20-fold using Detection buffer, and the two antibodies were then mixed uniformly at a 1:1 volume ratio). The mixture was incubated at room temperature for 2-24 h, and fluorescence signals at […] and 615 nm were detected using a microplate reader. Parallel treatment plates were simultaneously set up in the experiment, and cell viability was detected using the CellTiter-Glo kit. The CellTiter-Glo reagent was equilibrated to room temperature, and an appropriate amount was added to the cell plate, followed by shaking at room temperature for 12 min. The luminescence signal was detected using a microplate reader.
(§4) The fluorescence signal values of DMSO-treated wells and positive drug-treated wells were used as negative and positive controls, respectively, to calculate the level of γ-H2AX induced by the compounds. The concentration-induction rate curve was fitted using the "log(agonist) vs. response -- Variable slope (four parameters)" equation in GraphPad Prism 8 software to obtain the EC50. [formula] [formula]

[3] = biological target: T1, WRN enzyme (Homo sapiens, UniProt Q14191); experiment: WRN helicase activity assay (unwinding of BHQ2/Cy5-labelled double-stranded DNA, fluorescence); type: biochemical; conditions: Table 3, 30 min pre-incubation, 30 min reaction
T1 construct: host or cells: eukaryotic cells (not further specified)
Text: The WRN enzyme used in the experiment has a His-TEV tag at the N-terminus and is expressed in eukaryotic cells with a purity of 90%. The two single-stranded DNAs used for assay are labeled with BHQ2 and Cy5, respectively. When two fluorophores are in close proximity (when the DNA is in a double-stranded state), no fluorescence signal is detected due to the quenching effect. WRN has helicase activity, which enables the unwinding of double-stranded DNA to form single strands, thereby generating a fluorescence signal.
Two labeled single-stranded DNA strands were annealed to form double-stranded DNA. Annealing buffer: 12 mM Tris (pH 8.0), 300 mM NaCl, 12 mM MgCl2, 2 mM DTT. Annealing program: 95°C, 5 min.
2× WRN enzyme (2 nM) and 2× substrate (100 nM double-stranded DNA, 1000 nM capture DNA, 100 µM ATP) were prepared using buffer (20 mM Bicine, 10 mM KCl, 1 mM MgCl2, 0.005% BSG, 1 mM TCEP, 0.1% F-127, pH 7.5). The test compound was dissolved in DMSO to 10 mM and was gradient-diluted using a 96-well V-bottom plate. 0.5 µL of compound was added to 25 µL of 2× WRN enzyme and incubated at room temperature for 30 min. 25 µL of 2× substrate was added, and the reaction was carried out at room temperature for 30 min. Detection was performed using a microplate reader with an excitation wavelength of 620 nm and an emission wavelength of 685 nm.
The concentration-effect curve was fitted using GraphPad Prism 8 software, and the compound concentration for 50% inhibition (IC50) was calculated. The percentage inhibition for each compound concentration was first calculated, and then the concentration-effect curve was fitted using the "log(inhibitor) vs. normalized response -- Variable slope" equation in GraphPad Prism 8 software to obtain the IC50. [formula] • Positive control: 25 µL 2× WRN enzyme + 0.5 µL DMSO + 25 µL 2× substrate • Negative control: 25 µL 2× buffer + 0.5 µL DMSO + 25 µL 2× substrate

[4] = test system: SW620 cells; experiment: γH2AX induction assay (HTRF Phospho-H2AX), SW620; type: cell-based; conditions: Homo sapiens, SW-620 (MSS), incubated for 2-3 days, read-out: γ-H2AX induction SW-620 (EC50 nM)
Protocol: as §3, §4

[5] = test system: SW48; experiment: γH2AX induction assay (HTRF Phospho-H2AX), SW48; type: cell-based; conditions: Homo sapiens, SW-48, incubated for 2-3 days, read-out: γ-H2AX induction SW-48 (EC50 nM)
Protocol: as §3, §4

[6] = test system: SW48 cells; experiment: Cell proliferation assay (CellTiter-Glo), SW48; type: cell-based; conditions: Homo sapiens, SW48, 120 h, SW-48, 5 days incubation
Protocol: as §1, §2

T1 sequence (Q14191 whole entry): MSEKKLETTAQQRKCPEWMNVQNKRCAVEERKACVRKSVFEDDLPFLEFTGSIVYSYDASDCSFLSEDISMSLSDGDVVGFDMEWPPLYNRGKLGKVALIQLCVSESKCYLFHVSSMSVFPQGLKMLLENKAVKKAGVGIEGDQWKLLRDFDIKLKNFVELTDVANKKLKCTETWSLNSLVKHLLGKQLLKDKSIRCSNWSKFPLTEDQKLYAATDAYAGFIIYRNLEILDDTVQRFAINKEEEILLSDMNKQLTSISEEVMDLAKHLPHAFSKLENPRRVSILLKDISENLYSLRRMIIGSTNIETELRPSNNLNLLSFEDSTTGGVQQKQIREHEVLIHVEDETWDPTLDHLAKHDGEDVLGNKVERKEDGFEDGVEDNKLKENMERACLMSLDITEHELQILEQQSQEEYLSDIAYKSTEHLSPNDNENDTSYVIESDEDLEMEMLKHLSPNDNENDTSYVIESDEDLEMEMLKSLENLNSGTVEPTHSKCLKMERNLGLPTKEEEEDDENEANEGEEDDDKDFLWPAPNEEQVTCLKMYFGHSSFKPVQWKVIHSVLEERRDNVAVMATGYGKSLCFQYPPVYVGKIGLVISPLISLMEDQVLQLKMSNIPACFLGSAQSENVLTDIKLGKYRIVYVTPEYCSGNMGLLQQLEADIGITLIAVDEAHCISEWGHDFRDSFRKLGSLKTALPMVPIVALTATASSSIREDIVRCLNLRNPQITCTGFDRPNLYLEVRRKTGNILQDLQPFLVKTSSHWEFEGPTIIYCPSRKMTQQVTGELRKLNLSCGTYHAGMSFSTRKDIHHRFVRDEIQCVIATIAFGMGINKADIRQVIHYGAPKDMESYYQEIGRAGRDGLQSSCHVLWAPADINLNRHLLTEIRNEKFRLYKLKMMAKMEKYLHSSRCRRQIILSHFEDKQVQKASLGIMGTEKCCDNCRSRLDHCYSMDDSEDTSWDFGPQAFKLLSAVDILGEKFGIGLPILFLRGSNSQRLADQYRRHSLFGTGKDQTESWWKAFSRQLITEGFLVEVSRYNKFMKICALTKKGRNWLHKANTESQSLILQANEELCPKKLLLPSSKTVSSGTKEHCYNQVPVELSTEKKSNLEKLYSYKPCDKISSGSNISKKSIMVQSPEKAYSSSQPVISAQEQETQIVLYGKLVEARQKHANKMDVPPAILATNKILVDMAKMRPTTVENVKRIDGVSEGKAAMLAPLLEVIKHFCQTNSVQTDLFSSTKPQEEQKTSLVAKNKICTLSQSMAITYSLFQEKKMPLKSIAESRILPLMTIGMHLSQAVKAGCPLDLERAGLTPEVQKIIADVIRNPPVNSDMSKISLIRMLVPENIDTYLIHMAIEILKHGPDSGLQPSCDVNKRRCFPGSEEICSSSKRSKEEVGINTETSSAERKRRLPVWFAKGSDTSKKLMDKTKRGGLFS

CCc1c(N2CCN(C(=O)c3ncnc(C)c3O)CC2)c(=O)c2nn(C3=CCOCC3)nc2n1CC(=O)Nc1ccc(C(F)(F)F)cc1Cl [Example 4]
IC50 [1]: > 25000 nM | EC50 [2]: 128 nM | IC50 [3]: 60.9 nM | EC50 [4]: > 10000 nM | EC50 [5]: 53.8 nM | IC50 [6]: 37.2 nM

CCc1c(N2CCN(C(=O)c3ncnc(C)c3O)CC2)c(=O)c2nn(C3=CCOCC3)nc2n1CC(=O)Nc1cc(F)c(C(F)(F)F)cc1Cl [Example 15]
IC50 [1]: > 25000 nM | EC50 [2]: 97.1 nM | IC50 [3]: 70.2 nM | EC50 [4]: > 10000 nM | EC50 [5]: 62.9 nM | IC50 [6]: 35.4 nM

CCc1c(N2CCN(C(=O)c3ncnc(C)c3O)CC2)c(=O)c2nn(C3=CCOCC3)nc2n1CC(=O)Nc1cc(F)c(Cl)cc1Cl [Example 22]
IC50 [1]: > 25000 nM | EC50 [2]: 168 nM | IC50 [3]: 72.1 nM | EC50 [4]: > 10000 nM | EC50 [5]: 128 nM | IC50 [6]: 70.7 nM
